Assays:
[1] = tested on: KRAS mRNA in Panc-1 cells; parameters: method as in PMID 18490377; conditions: 12 or 24 hours, 50 μM; cited from earlier work
[2] = tested on: colon cancer cell lines with mutated KRAS; assay: Anti-proliferative activity, colon cancer cell lines with mutated KRAS; assay type: cell-based; conditions: Homo sapiens; range over HCT116 and SW620
From the text: These differences may be due to differing effects on cellular proliferation mechanisms, on cellular uptake and/or intracellular distribution. Assuming a passive diffusion membrane transport for IQcs, compound 2d is expected to accumulate more inside cells due to its predicted higher lipophilicity than compounds with an additional protonated basic group at physiologic pH (3d and 3e). Similarly, the tetra-cationic porphyrin TMPyP4, which is known to have low cell-membrane permeability, gave higher IC50 values.
HCT116 human colon carcinoma cells, SW620 human colorectal adenocarcinoma and HEK293 T human embryonic kidney cells were grown in Dulbecco's modified Eagle's medium (DMEM) supplemented with 10% fetal bovine serum, and 1% antibiotic/antimycotic (Invitrogen, Grand Island, NY, USA) and maintained at 37°C in a humidified atmosphere of 5% CO2. […] Following 72 h of compound exposure, cell viability was evaluated using the CellTiter 96 AQueous Non-Radioactive Cell Proliferation Assay (Promega, Madison, WI, USA), using 3-(4,5-dimethylthiazol-2-yl)-5-(3-carboxymethoxyphenyl)-2-(4-sulfophenyl)-2H-tetrazolium, inner salt (MTS) as previously described. Cell viability data were expressed as mean ± SEM or mean ± SD from at least three independent experiments. IC50 and IC65 values were determined using GaphPad Prism v.5.00 (GraphPad Software). […]

[3] = tested on: KRAS21R G4; assay: Binding stoichiometry, Job plot (continuous variation); parameters: species or system human; conditions: [3e] + [G4] = 4 μM, 25°C
Experimental: In order to determine the number of ligand-binding sites, continuous variation analysis (Job plot)[27] of 3e with KRAS21R was performed. Plotting of fluorescence as a function of the mole fraction of 3e (χ) gave linear dependences at high and low molar fractions (Figure S9b).
The binding stoichiometry of indolo[3,2-c]quinoline derivative 3e with KRAS21R G4 was obtained by spectrophotofluorimetry at 25°C using the Job method of continuous variation. A previously annealed G4 stock solution at 25 μM (heating to 95°C for 10 min, followed by slow cooling to RT) of the non-labelled oligonucleotide sequences KRAS21R in K-cacodylate buffer pH 7.4 (containing 60 mM K^+) was used. Test compound was prepared at 1 mM concentration in HPLC-grade water (10% DMSO) stock solution. The rest of the dilutions were performed using K-cacodylate buffer. Total concentration of ligand and G4 in the solution was kept constant ([3e] + [G4] = 4 μM) as previously described.
Figure S9 | a) CD titration spectra of the KRAS21R and induced by titration with 3e in K-cacodylate buffer pH 7.4, containing 60 mM K+ at 25 °C. Solid black line – Pure G4 DNA at […]
sequentially from the top around 260 nm; b) Job Plot of 3e in complex with KRAS21R G4 in K-cacodylate buffer pH 7.4, containing 60 mM K+, at 25 °C. The sum of the concentrations of 3e and G4 was kept constant at 4 µM.
Figure S10. […]

For `C[n+]1ccc(-c2c3nc(c(-c4cc[n+](C)cc4)c4ccc([nH]4)c(-c4cc[n+](C)cc4)c4ccc([nH]4)c(-c4cc[n+](C)cc4)c4nc2C=C4)C=C3)cc1` [TMPyP4, reference compound], the “Decrease in KRAS mRNA levels” value [1] is given as about 30%.
In the case of `CCN(CC)CCCNc1ccc2c(c1)c1[nH]c3ccccc3c1c[n+]2C` [2d], the IC50 [2] is reported as 140 to 500 nM.
For `CCN(CC)CCCNc1ccc2c(c1)[nH]c1c2c[n+](C)c2ccc(NCCCN(CC)CC)cc12.[Cl-]` [3e], the “Job plot molar fraction at intersection” value [3] was 0.61.

Reference: paper PMC5382548 (Scientific Reports, 2015)
